# In patent publication US8435980B2 (AbbVie Inc., priority 2009, dated 2013):
# pKi: −log10 of the molar value.
# Molecular target: T1, Cdc7 (BEV coexpressed huCDC7/DBF4) (Homo sapiens, UniProt O00311)
# T1 construct: made in house; host or cells: BEV (baculovirus expression vector) co-expression; insect cells are implied but no cell line is named
# Assay: Cdc7 enzyme inhibition assay ([33P]ATP, biotinylated peptide substrate, FlashPlate)
# Type: biochemical
# Details: Table 3; enzyme inhibition data (Ki)
# Description: Cdc7 (BEV coexpressed huCDC7/DBF4) is prepared internally. Cdc7 assays are conducted as follows with final concentrations as listed. […] Reactions are quenched after 1 hr by the addition of 90 μL stop buffer (50 mM EDTA, 2M NaCl). […] (Ki) for exemplary compounds.
# T1 sequence (O00311 whole entry): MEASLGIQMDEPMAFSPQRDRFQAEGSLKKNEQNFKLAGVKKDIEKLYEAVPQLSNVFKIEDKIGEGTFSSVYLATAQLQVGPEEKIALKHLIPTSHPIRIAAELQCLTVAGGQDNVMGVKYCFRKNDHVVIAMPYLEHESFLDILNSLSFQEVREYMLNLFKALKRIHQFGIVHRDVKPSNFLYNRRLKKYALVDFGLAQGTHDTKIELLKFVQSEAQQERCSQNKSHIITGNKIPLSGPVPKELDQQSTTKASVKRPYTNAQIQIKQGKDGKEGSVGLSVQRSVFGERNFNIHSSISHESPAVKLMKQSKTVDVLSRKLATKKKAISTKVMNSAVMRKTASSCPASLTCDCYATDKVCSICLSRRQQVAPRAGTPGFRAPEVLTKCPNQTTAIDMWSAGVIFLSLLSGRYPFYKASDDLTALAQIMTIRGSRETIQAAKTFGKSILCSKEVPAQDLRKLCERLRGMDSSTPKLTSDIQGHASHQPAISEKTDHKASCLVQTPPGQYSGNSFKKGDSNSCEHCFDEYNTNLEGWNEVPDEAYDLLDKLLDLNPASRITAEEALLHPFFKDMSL
# T1 sequence (Q9UBU7 whole entry partner): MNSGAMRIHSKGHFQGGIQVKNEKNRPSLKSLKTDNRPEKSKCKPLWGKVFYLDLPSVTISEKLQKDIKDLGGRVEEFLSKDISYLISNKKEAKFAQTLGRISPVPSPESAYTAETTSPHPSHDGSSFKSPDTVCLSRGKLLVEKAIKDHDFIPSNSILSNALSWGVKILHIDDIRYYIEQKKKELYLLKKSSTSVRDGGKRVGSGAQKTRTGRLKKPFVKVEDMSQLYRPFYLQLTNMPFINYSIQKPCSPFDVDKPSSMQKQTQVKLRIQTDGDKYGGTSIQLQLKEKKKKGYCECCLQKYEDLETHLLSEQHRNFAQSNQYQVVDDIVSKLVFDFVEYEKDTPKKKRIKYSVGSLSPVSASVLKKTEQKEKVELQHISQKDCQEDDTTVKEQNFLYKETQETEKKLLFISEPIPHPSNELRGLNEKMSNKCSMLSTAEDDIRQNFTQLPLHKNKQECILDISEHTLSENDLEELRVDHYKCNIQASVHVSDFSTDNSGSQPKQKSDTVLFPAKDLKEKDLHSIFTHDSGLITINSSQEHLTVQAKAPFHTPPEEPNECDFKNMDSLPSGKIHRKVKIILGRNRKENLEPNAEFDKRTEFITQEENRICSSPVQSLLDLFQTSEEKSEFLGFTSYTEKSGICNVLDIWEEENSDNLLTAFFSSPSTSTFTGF
row,pKi,SMILES
1,> 8.00,"CC(C)NC(=O)NC1CCCC(Nc2cc(-c3c[nH]c4ncccc34)cc(Cl)n2)C1 (stereo not shown) [Example 301, 1-(3-{[6-chloro-4-(1H-pyrrolo[2,3-b]pyridin-3-yl)pyridin-2-yl]amino}cyclohexyl)-3-propan-2-ylurea]"
2,> 8.00,"CCOC(=O)CNC(=O)NC1CCCC(Nc2cc(-c3c[nH]c4ncccc34)cc(Cl)n2)C1 (stereo not shown) [Example 302, ethyl N-[(3-{[6-chloro-4-(1H-pyrrolo[2,3-b]pyridin-3-yl)pyridin-2-yl]amino}cyclohexyl)carbamoyl]glycinate]"
3,7.00 to 8.00,"O=C(NCC1CCCCC1)NC1CCCC(Nc2cc(-c3c[nH]c4ncccc34)cc(Cl)n2)C1 (stereo not shown) [Example 303, 1-(3-{[6-chloro-4-(1H-pyrrolo[2,3-b]pyridin-3-yl)pyridin-2-yl]amino}cyclohexyl)-3-(cyclohexylmethyl)urea]"
4,7.00 to 8.00,"CC(=O)c1ccc(S(=O)(=O)NCC(C)(C)CNc2cc(-c3c[nH]c4ncccc34)cc(Cl)n2)cc1 [Example 304, 4-acetyl-N-(3-{[6-chloro-4-(1H-pyrrolo[2,3-b]pyridin-3-yl)pyridin-2-yl]amino}-2,2-dimethylpropyl)benzenesulfonamide]"
5,7.00 to 8.00,"Cc1noc(C)c1S(=O)(=O)NCC(C)(C)CNc1cc(-c2c[nH]c3ncccc23)cc(Cl)n1 [Example 305, N-(3-{[6-chloro-4-(1H-pyrrolo[2,3-b]pyridin-3-yl)pyridin-2-yl]amino}-2,2-dimethylpropyl)-3,5-dimethyl-1,2-oxazole-4-sulfonamide]"
6,7.00 to 8.00,"CC(C)(CNc1cc(-c2c[nH]c3ncccc23)cc(Cl)n1)CNS(=O)(=O)c1cccs1 [Example 306, N-(3-{[6-chloro-4-(1H-pyrrolo[2,3-b]pyridin-3-yl)pyridin-2-yl]amino}-2,2-dimethylpropyl)thiophene-2-sulfonamide]"
7,> 8.00,"Cc1noc(C)c1S(=O)(=O)NC1CCCC(Nc2cc(-c3c[nH]c4ncccc34)cc(Cl)n2)C1 (stereo not shown) [Example 307, N-(3-{[6-chloro-4-(1H-pyrrolo[2,3-b]pyridin-3-yl)pyridin-2-yl]amino}cyclohexyl)-3,5-dimethyl-1,2-oxazole-4-sulfonamide]"
8,> 8.00,"CCCNC(=O)NC1CCCC(Nc2cc(-c3c[nH]c4ncccc34)cc(Cl)n2)C1 (stereo not shown) [Example 308, 1-(3-{[6-chloro-4-(1H-pyrrolo[2,3-b]pyridin-3-yl)pyridin-2-yl]amino}cyclohexyl)-3-propylurea]"
9,> 8.00,"CCCS(=O)(=O)NCC(C)(C)CNc1cc(-c2c[nH]c3ncccc23)cc(Cl)n1 [Example 309, N-(3-{[6-chloro-4-(1H-pyrrolo[2,3-b]pyridin-3-yl)pyridin-2-yl]amino}-2,2-dimethylpropyl)propane-1-sulfonamide]"
10,> 8.00,"CC(=O)Nc1cc(-c2c[nH]c3ncccc23)cc(Cl)n1 [Example 310, N-[6-chloro-4-(1H-pyrrolo[2,3-b]pyridin-3-yl)pyridin-2-yl]acetamide]"
11,> 8.00,"CC(C)S(=O)(=O)N[C@H]1CC[C@H](Nc2cc(-c3c[nH]c4ncccc34)cc(Cl)n2)CC1 [Example 311, N-(trans-4-{[6-chloro-4-(1H-pyrrolo[2,3-b]pyridin-3-yl)pyridin-2-yl]amino}cyclohexyl)propane-2-sulfonamide]"
12,> 8.00,"CCS(=O)(=O)N[C@H]1CC[C@H](Nc2cc(-c3c[nH]c4ncccc34)cc(Cl)n2)CC1 [Example 312, N-(trans-4-{[6-chloro-4-(1H-pyrrolo[2,3-b]pyridin-3-yl)pyridin-2-yl]amino}cyclohexyl)ethanesulfonamide]"
13,> 8.00,"CCCCS(=O)(=O)NCCNc1cc(-c2c[nH]c3ncccc23)cc(Cl)n1 [Example 313, N-(2-{[6-chloro-4-(1H-pyrrolo[2,3-b]pyridin-3-yl)pyridin-2-yl]amino}ethyl)butane-1-sulfonamide]"
14,> 8.00,"O=S(=O)(NCCNc1cc(-c2c[nH]c3ncccc23)cc(Cl)n1)c1cccs1 [Example 314, N-(2-{[6-chloro-4-(1H-pyrrolo[2,3-b]pyridin-3-yl)pyridin-2-yl]amino}ethyl)thiophene-2-sulfonamide]"
15,> 8.00,"CN1CCCC(Nc2cc(-c3c[nH]c4ncccc34)cc(Cl)n2)C1 (stereo not shown) [Example 315, 6-chloro-N-(1-methylpiperidin-3-yl)-4-(1H-pyrrolo[2,3-b]pyridin-3-yl)pyridin-2-amine]"
16,> 8.00,"O=C(C1CC1)N1CCCC(CNc2cc(-c3c[nH]c4ncccc34)cc(Cl)n2)C1 (stereo not shown) [Example 316, [3-({[6-chloro-4-(1H-pynolo[2,3-b]pyridin-3-yl)pyridin-2-yl]amino}methyl)piperidin-1-yl](cyclopropyl)methanone]"
17,7.00 to 8.00,"O=C(C1CC1)N1CCCC(CN(C(=O)C2CC2)c2cc(-c3c[nH]c4ncccc34)cc(Cl)n2)C1 (stereo not shown) [Example 317, N-[6-chloro-4-(1H-pyrrolo[2,3-b]pyridin-3-yl)pyridin-2-yl]-N-{[1-(cyclopropylcarbonyl)piperidin-3-yl]methyl}cyclopropanecarboxamide]"

row,pKi,SMILES
1,7.00 to 8.00,"Clc1cc(-c2c[nH]c3ncccc23)cc(NCC2CCCN(CC3CC3)C2)n1 (stereo not shown) [Example 318, 6-chloro-N-{[1-(cyclopropylmethyl)piperidin-3-yl]methyl}-4-(1H-pyrrolo[2,3-b]pyridin-3-yl)pyridin-2-amine]"
2,> 8.00,"Clc1cc(-c2c[nH]c3ncccc23)cc(NC2CCCN(CC3CC3)C2)n1 (stereo not shown) [Example 319, 6-chloro-N-[1-(cyclopropylmethyl)piperidin-3-yl]-4-(1H-pyrrolo[2,3-b]pyridin-3-yl)pyridin-2-amine]"
3,7.00 to 8.00,"O=C(Cc1cc2ccccc2[nH]1)Nc1cc(-c2c[nH]c3ncccc23)cc(Cl)n1 [Example 320, N-[6-chloro-4-(1H-pyrrolo[2,3-b]pyridin-3-yl)pyridin-2-yl]-2-(1H-indol-2-yl)acetamide]"
4,> 8.00,"Clc1cc(-c2c[nH]c3ncccc23)cc(N[C@H]2CC[C@H](NC3CCCC3)CC2)n1 [Example 321, trans-N-[6-chloro-4-(1H-pyrrolo[2,3-b]pyridin-3-yl)pyridin-2-yl]-N′-cyclopentylcyclohexane-1,4-diamine]"
5,> 8.00,"CC(C)CN[C@H]1CC[C@H](Nc2cc(-c3c[nH]c4ncccc34)cc(Cl)n2)CC1 [Example 322, trans-N-[6-chloro-4-(1H-pyrrolo[2,3-b]pyridin-3-yl)pyridin-2-yl]-N′-(2-methylpropyl)cyclohexane-1,4-diamine]"
6,> 8.00,"Clc1cc(-c2c[nH]c3ncccc23)cc(NC2CCCC(N3CCCC3)C2)n1 (stereo not shown) [Example 323, 6-chloro-N-[3-(pyrrolidin-1-yl)cyclohexyl]-4-(1H-pyrrolo[2,3-b]pyridin-3-yl)pyridin-2-amine]"
7,> 8.00,"Clc1cc(-c2c[nH]c3ncccc23)cc(NC2CCCC(N3CCCCC3)C2)n1 (stereo not shown) [Example 324, 6-chloro-N-[3-(piperidin-1-yl)cyclohexyl]-4-(1H-pyrrolo[2,3-b]pyridin-3-yl)pyridin-2-amine]"
8,> 8.00,"CNCC(=O)N[C@H]1CC[C@H](Nc2cc(-c3c[nH]c4ncccc34)cc(Cl)n2)CC1 [Example 325, N-(trans-4-{[6-chloro-4-(1H-pyrrolo[2,3-b]pyridin-3-yl)pyridin-2-yl]amino}cyclohexyl)-N~2~-methylglycinamide]"
9,> 8.00,"CN[C@@H](C)C(=O)NC1CCCC(Nc2cc(-c3c[nH]c4ncccc34)cc(Cl)n2)C1 (stereo partly shown) [Example 327, N-(3-{[6-chloro-4-(1H-pyrrolo[2,3-b]pyridin-3-yl)pyridin-2-yl]amino}cyclohexyl)-N~2~-methylalaninamide]"
10,> 8.00,"CN[C@@H](C(=O)N[C@H]1CCC[C@H](Nc2cc(-c3c[nH]c4ncccc34)cc(Cl)n2)C1)c1ccccc1 [Example 328, (2R)—N-[(1S,3S)-3-{[6-chloro-4-(1H-pyrrolo[2,3-b]pyridin-3-yl)pyridin-2-yl]amino}cyclohexyl]-2-(methylamino)-2-phenylethanamide]"
11,> 8.00,"CN[C@@H](C(=O)N[C@@H]1CCC[C@@H](Nc2cc(-c3c[nH]c4ncccc34)cc(Cl)n2)C1)c1ccccc1 [Example 329, (2R)—N-[(1R,3R)-3-{[6-chloro-4-(1H-pyrrolo[2,3-b]pyridin-3-yl)pyridin-2-yl]amino}cyclohexyl]-2-(methylamino)-2-phenylethanamide]"
12,7.00 to 8.00,"O=S(=O)(N[C@@H]1CCCC[C@H]1Nc1cc(-c2c[nH]c3ncccc23)cc(Cl)n1)C1CC1 [Example 330, N-[(1R,2R)-2-{[6-chloro-4-(1H-pyrrolo[2,3-b]pyridin-3-yl)pyridin-2-yl]amino}cyclohexyl]cyclopropanesulfonamide]"
13,> 8.00,"O=S(=O)(Nc1cc(-c2c[nH]c3ncccc23)cc(Cl)n1)c1ccc(F)cc1 [Example 331, N-[6-chloro-4-(1H-pyrrolo[2,3-b]pyridin-3-yl)pyridin-2-yl]-4-fluorobenzenesulfonamide]"
14,> 8.00,"O=S(=O)(Nc1cc(-c2c[nH]c3ncccc23)cc(Cl)n1)C1CC1 [Example 332, N-[6-chloro-4-(1H-pyrrolo[2,3-b]pyridin-3-yl)pyridin-2-yl]cyclopropanesulfonamide]"
15,> 8.00,"CCN(CC)CC(C)(C)CNc1cc(-c2c[nH]c3ncccc23)cc(Cl)n1 [Example 333, N′-[6-chloro-4-(1H-pyrrolo[2,3-b]pyridin-3-yl)pyridin-2-yl]-N,N-diethyl-2,2-dimethylpropane-1,3-diamine]"
16,> 8.00,"CCN(CC)[C@H]1CC[C@H](Nc2cc(-c3c[nH]c4ncccc34)cc(Cl)n2)CC1 [Example 334, trans-N′-[6-chloro-4-(1H-pyrrolo[2,3-b]pyridin-3-yl)pyridin-2-yl]-N,N-diethylcyclohexane-1,4-diamine]"
17,> 8.00,"O=C1CC[C@H](C(=O)N[C@H]2CC[C@H](Nc3cc(-c4c[nH]c5ncccc45)cc(Cl)n3)CC2)N1 [Example 335, N-(trans-4-{[6-chloro-4-(1H-pyrrolo[2,3-b]pyridin-3-yl)pyridin-2-yl]amino}cyclohexyl)-5-oxo-D-prolinamide]"
